Reference: patent US7417156B2, “Orally active, antimalarial, anticancer, artemisinin-derived trioxane dimers” (Johns Hopkins University, priority 2002, dated 2008)
pIC50: −log10 of the molar value. Like-named read-outs stand apart in the source and are kept apart here.

What was measured:
[1] = system: chloroquine-sensitive P. falciparum (NF54); assay: Antimalarial activity in vitro, [3H]hypoxanthine incorporation; type: cell-based
[2] = system: K-562; assay: NCI 60 cell line panel screen (SRB); type: cell-based, human
[3] = system: RPMI-8226; assay: NCI 60 cell line panel screen (SRB); type: cell-based, human
[4] = system: A549/ATCC; assay: NCI 60 cell line panel screen (SRB); type: cell-based, human
[5] = system: EKVX; assay: NCI 60 cell line panel screen (SRB); type: cell-based, human
[6] = system: HOP-62; assay: NCI 60 cell line panel screen (SRB); type: cell-based, human
[7] = system: NCI-H460; assay: NCI 60 cell line panel screen (SRB); type: cell-based, human
[8] = system: NCI-H522; assay: NCI 60 cell line panel screen (SRB); type: cell-based, human
[9] = system: COLO 205; assay: NCI 60 cell line panel screen (SRB); type: cell-based, human
[10] = system: HCT-116; assay: NCI 60 cell line panel screen (SRB); type: cell-based, human
[11] = system: HCT-15; assay: NCI 60 cell line panel screen (SRB); type: cell-based, human
[12] = system: HT29; assay: NCI 60 cell line panel screen (SRB); type: cell-based, human
[13] = system: SF-268; assay: NCI 60 cell line panel screen (SRB); type: cell-based, human
[14] = system: SNB-75; assay: NCI 60 cell line panel screen (SRB); type: cell-based, human
[15] = system: MALME-3M; assay: NCI 60 cell line panel screen (SRB); type: cell-based, human
[16] = system: M14; assay: NCI 60 cell line panel screen (SRB); type: cell-based, human
[17] = system: SK-MEL-28; assay: NCI 60 cell line panel screen (SRB); type: cell-based, human
[18] = system: UACC-257; assay: NCI 60 cell line panel screen (SRB); type: cell-based, human
[19] = system: SK-OV-3; assay: NCI 60 cell line panel screen (SRB); type: cell-based, human
[20] = system: 786-0; assay: NCI 60 cell line panel screen (SRB); type: cell-based, human
[21] = system: ACHN; assay: NCI 60 cell line panel screen (SRB); type: cell-based, human
[22] = system: CAKI-1; assay: NCI 60 cell line panel screen (SRB); type: cell-based, human
[23] = system: MCF7; assay: NCI 60 cell line panel screen (SRB); type: cell-based, human
[24] = system: NCI/ADR-RES; assay: NCI 60 cell line panel screen (SRB); type: cell-based, human
[25] = system: MDA-MB231/ATCC; assay: NCI 60 cell line panel screen (SRB); type: cell-based, human
[26] = system: MDA-MB-435; assay: NCI 60 cell line panel screen (SRB); type: cell-based, human

SMILES: CC1CCC2C(C)C(CC(CO)CC3OC4OC5(C)CCC6C(C)CCC(C3C)C46OO5)OC3OC4(C)CCC1C32OO4 (centres unmarked) [Compound 4, bis-trioxane primary alcohol]
- IC50 [1]: below one nM
- antimalarial potency in vitro relative to artemisinin [1]: 10 times
- pIC50 ([1]; Table I, NF54 strain, read-out: IC50): 9.06
- Log10LC50 ([2]; K-562 (Leukemia), LC50: PG=−50): >−4.00 log10M
- Log10TGI50 ([2]; K-562 (Leukemia), TGI: PG=0): >−4.00 log10M
- Log10GI50 ([2]; Leukemia, K-562): −7.91
- Log10GI50 ([3]; Leukemia, RPMI-8226): <−8.00
- Log10LC50 ([3]; RPMI-8226 (Leukemia), LC50: PG=−50): >−4.00 log10M
- Log10TGI50 ([3]; RPMI-8226 (Leukemia), TGI: PG=0): −6.91 log10M
- Log10LC50 ([4]; A549/ATCC (Non-Small Cell Lung Cancer), LC50: PG=−50): −4.11 log10M
- Log10TGI50 ([4]; A549/ATCC (Non-Small Cell Lung Cancer), TGI: PG=0): −4.71 log10M
- Log10GI50 ([4]; Non-Small Cell Lung Cancer, A549/ATCC): −7.29
- Log10LC50 ([5]; EKVX (Non-Small Cell Lung Cancer), LC50: PG=−50): −4.36 log10M
- Log10TGI50 ([5]; EKVX (Non-Small Cell Lung Cancer), TGI: PG=0): −4.77 log10M
- Log10GI50 ([5]; Non-Small Cell Lung Cancer, EKVX): −7.12
- Log10LC50 ([6]; HOP-62 (Non-Small Cell Lung Cancer), LC50: PG=−50): −4.20 log10M
- Log10TGI50 ([6]; HOP-62 (Non-Small Cell Lung Cancer), TGI: PG=0): −4.56 log10M
- Log10GI50 ([6]; Non-Small Cell Lung Cancer, HOP-62): −4.92
- Log10LC50 ([7]; NCI-H460 (Non-Small Cell Lung Cancer), LC50: PG=−50): −4.19 log10M
- Log10TGI50 ([7]; NCI-H460 (Non-Small Cell Lung Cancer), TGI: PG=0): −4.71 log10M
- Log10GI50 ([7]; Non-Small Cell Lung Cancer, NCI-H460): −7.35
- Log10TGI50 ([8]; NCI-H522 (Non-Small Cell Lung Cancer), TGI: PG=0): −4.88 log10M
- Log10LC50 ([8]; NCI-H-522 (Non-Small Cell Lung Cancer), LC50: PG=−50): −4.40 log10M
- Log10GI50 ([8]; Non-Small Cell Lung Cancer, NCI-H522): −7.53
- Log10LC50 ([9]; COLO 205 (Colon Cancer), LC50: PG=−50): −4.50 log10M
- Log10TGI50 ([9]; COLO 205 (Colon Cancer), TGI: PG=0): −6.43 log10M
- Log10GI50 ([9]; Colon Cancer, COLO 205): <−8.00
- Log10GI50 ([10]; Colon Cancer, HCT-116): <−8.00
- Log10LC50 ([10]; HCT-116 (Colon Cancer), LC50: PG=−50): −4.57 log10M
- Log10GI50 ([11]; Colon Cancer, HCT-15): <−8.00
- Log10LC50 ([11]; HCT-15 (Colon Cancer), LC50: PG=−50): −4.06 log10M
- Log10TGI50 ([11]; HCT-15 (Colon Cancer), TGI: PG=0): −4.78 log10M
- Log10GI50 ([12]; Colon Cancer, HT29): −7.75
- Log10LC50 ([12]; HT29 (Colon Cancer), LC50: PG=−50): >−4.00 log10M
- Log10TGI50 ([12]; HT29 (Colon Cancer), TGI: PG=0): −4.67 log10M
- Log10GI50 ([13]; CNS Cancer, SF-268): −5.40
- Log10LC50 ([13]; SF-268 (CNS Cancer), LC50: PG=−50): −4.23 log10M
- Log10TGI50 ([13]; SF-268 (CNS Cancer), TGI: PG=0): −4.63 log10M
- Log10GI50 ([14]; CNS Cancer, SNB-75): −4.99
- Log10LC50 ([14]; SNB-75 (CNS Cancer), LC50: PG=−50): −4.12 log10M
- Log10TGI50 ([14]; SNB-75 (CNS Cancer), TGI: PG=0): −4.55 log10M
- Log10LC50 ([15]; MALME-3M (Melanoma), LC50: PG=−50): −4.28 log10M
- Log10TGI50 ([15]; MALME-3M (Melanoma), TGI: PG=0): −4.74 log10M
- Log10GI50 ([15]; Melanoma, MALME-3M): −7.31
- Log10LC50 ([16]; M14 (Melanoma), LC50: PG=−50): −4.14 log10M
- Log10TGI50 ([16]; M-14 (Melanoma), TGI: PG=0): −4.68 log10M
- Log10GI50 ([16]; Melanoma, M14): −5.87
- Log10GI50 ([17]; Melanoma, SK-MEL-28): −4.95
- Log10LC50 ([17]; SK-MEL-28 (Melanoma), LC50: PG=−50): −4.12 log10M
- Log10TGI50 ([17]; SK-MEL-28 (Melanoma), TGI: PG=0): −4.54 log10M
- Log10GI50 ([18]; Melanoma, UACC-257): −7.31
- Log10LC50 ([18]; UACC-257 (Melanoma), LC50: PG=−50): −4.30 log10M
- Log10TGI50 ([18]; UACC-257 (Melanoma), TGI: PG=0): −4.71 log10M
- Log10GI50 ([19]; Ovarian Cancer, SK-OV-3): −4.85
- Log10LC50 ([19]; SK-OV-3 (Ovarian Cancer), LC50: PG=−50): −4.21 log10M
- Log10TGI50 ([19]; SK-OV-3 (Ovarian Cancer), TGI: PG=0): −4.53 log10M
- Log10LC50 ([20]; 786-0 (Renal Cancer), LC50: PG=−50): −4.31 log10M
- Log10TGI50 ([20]; 786-0 (Renal Cancer), TGI: PG=0): −4.83 log10M
- Log10GI50 ([20]; Renal Cancer, 786-0): −7.48
- Log10LC50 ([21]; ACHN (Renal Cancer), LC50: PG=−50): −4.30 log10M
- Log10TGI50 ([21]; ACHN (Renal Cancer), TGI: PG=0): −4.76 log10M
- Log10GI50 ([21]; Renal Cancer, ACHN): −7.12
- Log10LC50 ([22]; CAKI-1 (Renal Cancer), LC50: PG=−50): −4.38 log10M
- Log10TGI50 ([22]; CAKI-1 (Renal Cancer), TGI: PG=0): −4.84 log10M
- Log10GI50 ([22]; Renal Cancer, CAKI-1): −7.05
- Log10GI50 ([23]; Breast Cancer, MCF7): −7.22
- Log10LC50 ([23]; MCF7 (Breast Cancer), LC50: PG=−50): −4.03 log10M
- Log10TGI50 ([23]; MCF7 (Breast Cancer), TGI: PG=0): −4.67 log10M
- Log10GI50 ([24]; Breast Cancer, NCI/ADR-RES): −7.45
- Log10LC50 ([24]; NCI/ADR-RES (Breast Cancer), LC50: PG=−50): −4.52 log10M
- Log10TGI50 ([24]; NCI/ADR-RES (Breast Cancer), TGI: PG=0): −6.41 log10M
- Log10GI50 ([25]; Breast Cancer, MDA-MB231/ATCC): −5.40
- Log10LC50 ([25]; MDA-MB231/ATCC (Breast Cancer), LC50: PG=−50): >−4.00 log10M
- Log10TGI50 ([25]; MDA-MB231/ATCC (Breast Cancer), TGI: PG=0): −4.33 log10M
- Log10GI50 ([26]; Breast Cancer, MDA-MB-435): −7.50
- Log10LC50 ([26]; MDA-MB-435 (Breast Cancer), LC50: PG=−50): −4.30 log10M
- Log10TGI50 ([26]; MDA-MB-435 (Breast Cancer), TGI: PG=0): −4.78 log10M
